Results as given in PMC12527922, “Cocaine chemogenetics blunts drug-seeking by synthetic physiology” (Nature, 2025).
Where “and” joins values, the source holds several entries; their conditions need not be identical. Equal entries are not always repeated. Where two headings read alike, the source gives them in different places.

How the values were obtained:
[1] = tested on: coca-5HT3 in cultured hippocampal neurons; experiment: Current-clamp of cultured hippocampal neurons expressing coca-5HT3; type: cell-based, rat; conditions: for DmV MEAN: coca-5HT3-IRES-EGFP, MEAN of cells
DAT = conditions: endogenous target; cited from earlier work
[2] = tested on: rats with coca-5HT3 in the LHb; experiment: Cocaine IVSA (intravenous self-administration); type: in vivo, rat; conditions: Coca-5HT3 rats
[3] = molecular target: α7–5HT3 mutant chimeric channels (Homo sapiens, UniProt P36544, L131G); experiment: cell-based; type: cell-based, human α7 nAChR LBD, mouse 5HT3 IPD
Sequence of α7–5HT3 mutant chimeric channels (Homo sapiens, UniProt P36544, L131G) (P36544 23-224 L131G): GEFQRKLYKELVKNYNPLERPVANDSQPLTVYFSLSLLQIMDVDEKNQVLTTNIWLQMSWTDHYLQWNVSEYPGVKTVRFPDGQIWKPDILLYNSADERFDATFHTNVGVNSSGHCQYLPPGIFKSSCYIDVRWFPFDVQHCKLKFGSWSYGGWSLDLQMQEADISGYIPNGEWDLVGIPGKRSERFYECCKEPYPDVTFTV
Sequence of α7–5HT3 mutant chimeric channels (Homo sapiens, UniProt P36544, L131G) (P23979 242-489, further chain): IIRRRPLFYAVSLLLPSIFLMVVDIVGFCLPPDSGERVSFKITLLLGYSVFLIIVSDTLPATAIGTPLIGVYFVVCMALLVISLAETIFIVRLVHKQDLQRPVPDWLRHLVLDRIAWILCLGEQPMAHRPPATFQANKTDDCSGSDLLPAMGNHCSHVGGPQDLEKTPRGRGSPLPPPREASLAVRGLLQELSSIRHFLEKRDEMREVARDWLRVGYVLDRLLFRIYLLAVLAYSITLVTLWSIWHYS

[4] = molecular target: α7–5HT3 mutant chimeric channels (Homo sapiens, UniProt P36544, S170Q); experiment: cell-based; type: cell-based, human α7 nAChR LBD, mouse 5HT3 IPD
Sequence of α7–5HT3 mutant chimeric channels (Homo sapiens, UniProt P36544, S170Q) (P36544 23-224 S170Q): as the sequence (P36544 23-224 L131G) above, with G109L, S148Q counted along it
Sequence of α7–5HT3 mutant chimeric channels (Homo sapiens, UniProt P36544, S170Q) (P23979 242-489, further chain): as the sequence (P23979 242-489, further chain) above

[5] = molecular target: α7–5HT3 mutant chimeric channels (Homo sapiens, UniProt P36544, S170E); experiment: cell-based; type: cell-based, human α7 nAChR LBD, mouse 5HT3 IPD
Sequence of α7–5HT3 mutant chimeric channels (Homo sapiens, UniProt P36544, S170E) (P23979 242-489): as the sequence (P23979 242-489, further chain) above
Sequence of α7–5HT3 mutant chimeric channels (Homo sapiens, UniProt P36544, S170E) (P36544 23-224 S170E): as the sequence (P36544 23-224 L131G) above, with G109L, S148E counted along it

[6] = molecular target: α7–5HT3 mutant chimeric channels (Homo sapiens, UniProt P36544, Q139F); experiment: cell-based; type: cell-based, human α7 nAChR LBD, mouse 5HT3 IPD
Sequence of α7–5HT3 mutant chimeric channels (Homo sapiens, UniProt P36544, Q139F) (P36544 23-224 Q139F): as the sequence (P36544 23-224 L131G) above, with G109L, Q117F counted along it
Sequence of α7–5HT3 mutant chimeric channels (Homo sapiens, UniProt P36544, Q139F) (P23979 242-489, further chain): as the sequence (P23979 242-489, further chain) above

[7] = molecular target: α7–5HT3 mutant chimeric channels (Homo sapiens, UniProt P36544, S172L); experiment: cell-based; type: cell-based, human α7 nAChR LBD, mouse 5HT3 IPD
Sequence of α7–5HT3 mutant chimeric channels (Homo sapiens, UniProt P36544, S172L) (P36544 23-224 S172L): as the sequence (P36544 23-224 L131G) above, with G109L, S150L counted along it
Sequence of α7–5HT3 mutant chimeric channels (Homo sapiens, UniProt P36544, S172L) (P23979 242-489, further chain): as the sequence (P23979 242-489, further chain) above

multiple nAChR subtypes = conditions: cited from earlier work
[8] = molecular target: coca-5HT3 (α7(L141G,G175K,Y210F,Y217F)–5HT3) (Homo sapiens, UniProt P36544, G175K/L141G/Y210F/Y217F); experiment: Membrane potential assay, coca-5HT3 in HEK293; conditions: for Response / Max normalized Response: coca-5HT3; for Max normalized Response: ED Fig 3b
Sequence of coca-5HT3 (α7(L141G,G175K,Y210F,Y217F)–5HT3) (P36544 23-224 L141G/G175K/Y210F/Y217F): as the sequence (P36544 23-224 L131G) above, with G109L, L119G, G153K, Y188F, Y195F counted along it
Sequence of coca-5HT3 (α7(L141G,G175K,Y210F,Y217F)–5HT3) (P23979 242-489, further chain): as the sequence (P23979 242-489, further chain) above

SMILES: COC(=O)[C@H]1[C@@H](OC(=O)c2ccccc2)C[C@@H]2CC[C@H]1N2C [cocaine]
- current required to elicit an action potential (rheobase) ([1]; 3 µM cocaine): reduced
- DmV MEAN ([1]; cocaine 0.1 uM): 0.3818 mV
- DmV MEAN ([1]; cocaine 0.3 uM): 1.236 mV
- DmV MEAN ([1]; cocaine 1 uM): 4.155 mV
- DmV MEAN ([1]; cocaine 3 uM): 11.3545 mV
- DmV MEAN ([1]; cocaine 10 uM): 12.55 mV
- neuronal firing ([1]; cocaine 1–3 µM): increased
- depolarization of neurons expressing coca-5HT3 ([1]; current-clamp): depolarized neurons in a dose-dependent manner
- range of cocaine affinities for DAT (DAT): 0.23 to 2.0 µM
- Sheet 3g, Mean (per-rat counts at each dose) ([2]; Dose 0.0625): 32.0909
- Sheet 3h, Mean (sheet 3g count x dose, intake) ([2]; Dose 0.0625): 2.006
- Sheet 3g, Mean (per-rat counts at each dose) ([2]; Dose 0.125): 43.1818
- Sheet 3h, Mean (sheet 3g count x dose, intake) ([2]; Dose 0.125): 5.398
- Sheet 3g, Mean (per-rat counts at each dose) ([2]; Dose 0.25): 30.2727
- Sheet 3h, Mean (sheet 3g count x dose, intake) ([2]; Dose 0.25): 7.568
- Sheet 3g, Mean (per-rat counts at each dose) ([2]; Dose 0.5): 19.0909
- Sheet 3h, Mean (sheet 3g count x dose, intake) ([2]; Dose 0.5): 9.545
- Sheet 3g, Mean (per-rat counts at each dose) ([2]; Dose 1): 10.8182
- Sheet 3h, Mean (sheet 3g count x dose, intake) ([2]; Dose 1): 10.8182
- EC50 [3]: > 30000 nM
- EC50 ([3]; read-out: EC50 at α75HT3 L131G, sheet 1d, single determinations): > 30000 nM
- EC50 [4]: > 30000 nM
- EC50 [5]: > 30000 nM
- EC50 [6]: > 30000 nM
- EC50 ([6]; read-out: EC50 at a7 5HT3 Q139F, Avg, sheet 1d, Avg): > 30000 nM
- EC50 [7]: > 30000 nM
- activity at nAChR subtypes (multiple nAChR subtypes): low-affinity antagonist
- EC50 ([8]; EC50 at a75HT3 L141G G175K Y210F Y217F, AVG, sheet 1e): 1580 nM
- EC50 ([8]; EC50 at a75HT3 L141G G175K Y210F Y217F, sheet 1e, single determinations): 1800 nM and 1000 nM and 2640 nM and 810 nM and 1250 nM and 840 nM and 2800 nM
- Response ([8]; conc 0.0137 uM, ED Fig. 2c): 0.067
- Response ([8]; conc 0.0137174 uM, ED Fig. 2b): 0.067
- Response ([8]; conc 0.123 uM, ED Fig. 2c): 0.063
- Response ([8]; conc 0.123457 uM, ED Fig. 2b): 0.063
- Max normalized Response ([8]; conc 0.137 uM): 0.07313
- Response ([8]; conc 0.37 uM, ED Fig. 2c): 0.098
- Response ([8]; conc 0.37037 uM, ED Fig. 2b): 0.098
- Response ([8]; conc 0.457247 uM, ED Fig 3a): 0.103
- Response ([8]; conc 1.11111 uM, ED Fig. 2b): 0.363
- Response ([8]; conc 1.37174 uM, ED Fig 3a): 0.237
- Response ([8]; conc 3.33333 uM, ED Fig. 2b): 0.825
- Max normalized Response ([8]; conc 3.7 uM): 0.5001
- Response ([8]; conc 10 uM, ED Fig. 2b): 1.02
- Response ([8]; conc 10 uM, ED Fig. 2c): 1.023
- Max normalized Response ([8]; conc 11.1 uM): 0.7653
- Response ([8]; conc 12.3457 uM, ED Fig 3a): 1.106
- Response ([8]; conc 30 uM, ED Fig. 2b): 0.86
- Response ([8]; conc 30 uM, ED Fig. 2c): 0.864
- Max normalized Response ([8]; conc 33.3 uM): 0.8419
- Response ([8]; conc 37.037 uM, ED Fig 3a): 0.885
- Max normalized Response ([8]; conc 100 uM): 0.9656
- EC50 ([8]; half-maximum effective concentration (EC50), HEK293, fluorescence membrane potential assay): 1500 ± 300 nM
- peak brain cocaine concentration relative to EC50 for coca-5HT3 ([8]; intravenous dose in rats, Pan et al 1991): approximately 1.5 fold
